# The source made the active and inactive calls.
# Tests used:
# [1] = MIN6 cell viability loss – mouse insulinoma, cytotoxicity control, dose response (AID 2122); format: functional;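 further: confirmatory high-throughput counterscreen run to flag cytotoxic compounds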
# [2] = decrease of insulin promoter-GFP reporter – imaging, high-content screening, mouse beta cells (AID 1628); format: functional; settings: MIN6
# Cytochrome P450 3A4 = Cytochrome P450 3A4 (Homo sapiens, UniProt P08684);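 further: CYP3A4 tested as one member of a cytochrome P450 panel screen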
# Sequence of Cytochrome P450 3A4 (P08684 whole entry): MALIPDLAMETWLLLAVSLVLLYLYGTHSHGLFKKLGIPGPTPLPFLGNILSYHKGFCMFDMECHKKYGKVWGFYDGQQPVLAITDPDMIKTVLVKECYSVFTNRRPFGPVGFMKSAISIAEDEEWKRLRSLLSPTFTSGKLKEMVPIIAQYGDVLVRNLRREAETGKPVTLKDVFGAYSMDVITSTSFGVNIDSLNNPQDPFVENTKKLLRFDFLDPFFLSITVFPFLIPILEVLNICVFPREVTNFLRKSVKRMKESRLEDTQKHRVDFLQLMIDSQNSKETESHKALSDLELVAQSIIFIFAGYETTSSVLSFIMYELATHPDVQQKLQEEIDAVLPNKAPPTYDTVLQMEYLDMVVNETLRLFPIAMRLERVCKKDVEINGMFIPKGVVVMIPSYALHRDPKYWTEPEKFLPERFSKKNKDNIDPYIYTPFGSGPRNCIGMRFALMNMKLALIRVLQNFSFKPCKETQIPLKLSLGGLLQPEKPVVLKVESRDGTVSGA
# [3] = target: Melanin-concentrating hormone receptor 1 (Homo sapiens, UniProt Q99705); experiment: Fluorescence-based counterscreen for antagonists of the G-protein coupled receptor 7 (GPR7): cell-based high throughput dose response assay to identify antagonists of the melanin-concentrating hormone receptor 1 (MCHR1).; format: functional
# Sequence of Melanin-concentrating hormone receptor 1 (Q99705 whole entry): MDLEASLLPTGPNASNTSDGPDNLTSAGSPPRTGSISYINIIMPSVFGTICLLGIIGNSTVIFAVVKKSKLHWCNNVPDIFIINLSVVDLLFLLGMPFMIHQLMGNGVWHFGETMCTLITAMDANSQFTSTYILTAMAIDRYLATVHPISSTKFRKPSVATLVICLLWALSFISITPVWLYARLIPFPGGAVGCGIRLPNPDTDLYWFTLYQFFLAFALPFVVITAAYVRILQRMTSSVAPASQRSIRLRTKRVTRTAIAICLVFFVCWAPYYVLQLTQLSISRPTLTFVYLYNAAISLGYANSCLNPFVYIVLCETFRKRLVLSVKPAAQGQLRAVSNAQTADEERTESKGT
# [4] = target: T1, Neuropeptides B/W receptor type 1 (Homo sapiens, UniProt P48145); experiment: Fluorescence-based dose response cell-based high throughput screening assay to identify antagonists of the G-protein coupled receptor 7 (GPR7). [Related pubchem assays: 1952 (Screening assay (GPR7 antagonists).), 1880 (Summary AID.)]; format: functional
# T1 sequence (P48145 whole entry): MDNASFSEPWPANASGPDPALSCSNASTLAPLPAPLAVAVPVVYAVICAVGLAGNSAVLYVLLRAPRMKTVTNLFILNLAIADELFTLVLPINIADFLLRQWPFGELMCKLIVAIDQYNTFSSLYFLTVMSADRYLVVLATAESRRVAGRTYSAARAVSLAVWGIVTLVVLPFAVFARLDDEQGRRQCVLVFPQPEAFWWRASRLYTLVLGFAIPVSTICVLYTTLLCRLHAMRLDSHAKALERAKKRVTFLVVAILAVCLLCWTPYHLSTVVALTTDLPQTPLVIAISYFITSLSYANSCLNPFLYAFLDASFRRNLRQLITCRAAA
# [5] = NIH-3T3 fibroblast cytotoxicity, dose response, cytotoxicity control, cell-based, fluorescence, Alamar Blue, secondary assay (AID 2327); format: functional;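 further: NIH-3T3 mouse fibroblasts cultured with fluconazole at 8 µg/mL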
# [6] = NIH3T3 cell viability loss – ATP luminescence, mouse fibroblasts, counter-screen, dose response (AID 2010); format: functional, cell-based;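 further: cells exposed to compound for about 90 hours before reading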
# [7] = Trypanosoma cruzi growth suppression in host cells – NIH3T3 host cells, beta-gal luminescence, confirmation (AID 2044); format: functional, cell-based;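 further: intracellular parasites grown in NIH/3T3 mouse fibroblasts as host cells; luminescent beta-galactosidase reporter signal from transgenic T. cruzi replicating inside host cells; inhibitors lower the luminescence signal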
# [8] = target: ATP-dependent molecular chaperone HSP82 (Candida albicans (strain WO-1) (Yeast), UniProt C4YTQ8); experiment: steroid-induced GRE reporter decrease in yeast – S. cerevisiae, luminescence, Hsp90 inhibitor project, dose response (AID 2400); format: functional, cell-based;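 further: beta-galactosidase luminescence from glucocorticoid response element reporter as proxy for Hsp90 function; inhibitor potency where signal loss means Hsp90 inhibition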
# Sequence of ATP-dependent molecular chaperone HSP82 (C4YTQ8 whole entry): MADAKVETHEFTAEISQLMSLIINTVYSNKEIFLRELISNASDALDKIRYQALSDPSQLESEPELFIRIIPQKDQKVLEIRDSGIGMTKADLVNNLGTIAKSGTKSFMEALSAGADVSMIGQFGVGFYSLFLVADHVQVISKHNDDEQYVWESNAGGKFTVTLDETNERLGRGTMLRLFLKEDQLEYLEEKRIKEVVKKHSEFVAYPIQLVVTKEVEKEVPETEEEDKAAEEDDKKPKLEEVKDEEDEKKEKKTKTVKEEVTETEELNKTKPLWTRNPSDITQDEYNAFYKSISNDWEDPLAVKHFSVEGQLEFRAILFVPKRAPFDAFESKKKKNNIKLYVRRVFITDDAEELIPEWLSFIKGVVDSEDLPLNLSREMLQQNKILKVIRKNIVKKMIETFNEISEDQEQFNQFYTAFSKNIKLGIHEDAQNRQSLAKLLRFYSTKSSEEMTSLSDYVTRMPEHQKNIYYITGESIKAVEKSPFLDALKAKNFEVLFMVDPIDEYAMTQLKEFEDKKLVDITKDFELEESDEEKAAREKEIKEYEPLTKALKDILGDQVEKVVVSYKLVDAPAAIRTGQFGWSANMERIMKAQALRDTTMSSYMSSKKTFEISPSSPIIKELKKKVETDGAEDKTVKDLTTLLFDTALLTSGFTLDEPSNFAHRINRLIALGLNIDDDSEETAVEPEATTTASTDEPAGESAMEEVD
# [9] = target: T2, Serine/threonine-protein phosphatase (Candida dubliniensis (strain CD36 / CBS 7987 / NCPF 3949 / NRRLY-17841) (Yeast), UniProt B9W6M3); experiment: blockers of CaCl2-induced CDRE-lacZ signaling – S. cerevisiae, luminescence, secondary, dose response (AID 2388); format: functional, cell-based;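 further: yeast reporter cells carrying a calcineurin-responsive lacZ construct stimulated with calcium chloride; luminescent beta-galactosidase reporter signal in whole cells rather than isolated phosphatase activity; potency for inhibition where a drop in reporter signal means calcineurin blockade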
# T2 sequence (B9W6M3 whole entry): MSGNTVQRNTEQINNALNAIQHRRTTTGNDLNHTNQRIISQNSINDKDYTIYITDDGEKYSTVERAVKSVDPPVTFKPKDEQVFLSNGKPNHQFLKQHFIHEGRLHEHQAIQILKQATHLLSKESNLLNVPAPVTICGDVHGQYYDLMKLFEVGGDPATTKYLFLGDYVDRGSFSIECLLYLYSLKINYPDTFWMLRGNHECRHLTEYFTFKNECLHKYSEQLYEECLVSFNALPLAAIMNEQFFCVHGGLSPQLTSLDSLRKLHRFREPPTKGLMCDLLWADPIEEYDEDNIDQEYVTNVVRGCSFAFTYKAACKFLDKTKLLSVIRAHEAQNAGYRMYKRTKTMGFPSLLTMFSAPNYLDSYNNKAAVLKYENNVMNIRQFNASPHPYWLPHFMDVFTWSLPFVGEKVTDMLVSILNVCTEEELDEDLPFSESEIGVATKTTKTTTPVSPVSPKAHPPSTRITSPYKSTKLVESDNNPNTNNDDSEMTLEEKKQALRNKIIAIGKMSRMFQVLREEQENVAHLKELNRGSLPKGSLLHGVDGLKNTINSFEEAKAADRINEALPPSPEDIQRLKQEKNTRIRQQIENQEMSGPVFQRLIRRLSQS
# [10] = target: Heat shock protein HSP 90-alpha (Homo sapiens, UniProt P07900); format: functional, organism-based
# INS1 = experiment: INS-1E survival protection against cytokine death – cell-based, luminescence, retest, dose response (AID 449756); format: functional; settings: Rattus norvegicus;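 further: cell death triggered by IL-1 beta plus TNF-alpha plus IFN-gamma mixture; protective hits raise ATP signal compared with cytokine alone wells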
# [11] = fluconazole-exposed Candida albicans growth modulators – fluorescence, retest, confirmation (AID 2467); format: functional, cell-based
# [12] = Counterscreen for AddAB inhibitors: absorbance-based bacterial cell-based high throughput dose response assay for inhibitors of bacterial viability. [Related pubchem assays (depositor defined):AID435030, AID449728, AID449731, AID488942, AID488955, AID488956]; format: functional
# cells [13] = format: functional, cell-based
# Exodeoxyribonuclease V = Exodeoxyribonuclease V (Escherichia coli (strain K12), UniProt P04993+P07648+P08394); experiment: RecBCD inhibition via phage-restricted bacterial growth – absorbance, V66 E. coli, mutant T4 phage, counter-screen for AddAB inhibitor project, dose response (AID 492957); format: functional, cell-based, Escherichia coli str. K-12 substr. MG1655
# Vero = experiment: cells; format: functional; settings: Chlorocebus sabaeus
# cells [14] = format: functional, cell-based; remark: listed apart in the source
# HEK293 [15] = experiment: cells; settings: Homo sapiens
# [16] = system: Streptococcus sp. 'group A'; experiment: Streptococcus pyogenes SK(-)GAS viability under kanamycin – luminescence, BacTiterGlo, confirmation, counter-screen for streptokinase expression inhibitor project, dose response (AID 1900); format: functional, organism-based
# Streptococcus = experiment: GAS UMAA2166 growth inhibition – luminescence, BacTiterGlo, counter-screen for streptokinase expression inhibitor project, dose response (AID 1915); format: functional, organism-based;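 further: potency for reduction of bacterial viability or growth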
# Streptokinase A = target: T3, Streptokinase A (Streptococcus pyogenes serotype M1, UniProt P10520); experiment: viability-normalized secreted streptokinase activity reduction – plasminogen activation absorbance, OD405, dose response (AID 1914); format: functional, Streptococcus pyogenes M1 GAS;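 further: secreted streptokinase activity via plasminogen activation per viability signal from cell pellet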
# T3 sequence (P10520 whole entry): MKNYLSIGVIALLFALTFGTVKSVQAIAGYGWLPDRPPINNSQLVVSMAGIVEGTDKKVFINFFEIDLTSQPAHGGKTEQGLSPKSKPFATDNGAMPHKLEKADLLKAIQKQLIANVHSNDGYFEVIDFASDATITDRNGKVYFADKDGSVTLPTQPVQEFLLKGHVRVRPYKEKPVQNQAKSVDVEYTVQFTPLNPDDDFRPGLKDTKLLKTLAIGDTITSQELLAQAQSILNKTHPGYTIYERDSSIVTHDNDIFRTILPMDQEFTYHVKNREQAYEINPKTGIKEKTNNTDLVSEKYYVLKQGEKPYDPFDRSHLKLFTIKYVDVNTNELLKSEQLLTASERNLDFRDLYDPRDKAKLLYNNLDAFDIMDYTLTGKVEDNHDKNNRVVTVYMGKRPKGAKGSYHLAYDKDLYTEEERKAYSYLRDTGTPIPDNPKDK
# HEK293 [17] = experiment: cells; settings: Homo sapiens; remark: listed apart in the source
# Cytochrome P450 2C9 = Cytochrome P450 2C9 (Homo sapiens, UniProt P11712)
# Sequence of Cytochrome P450 2C9 (P11712 whole entry): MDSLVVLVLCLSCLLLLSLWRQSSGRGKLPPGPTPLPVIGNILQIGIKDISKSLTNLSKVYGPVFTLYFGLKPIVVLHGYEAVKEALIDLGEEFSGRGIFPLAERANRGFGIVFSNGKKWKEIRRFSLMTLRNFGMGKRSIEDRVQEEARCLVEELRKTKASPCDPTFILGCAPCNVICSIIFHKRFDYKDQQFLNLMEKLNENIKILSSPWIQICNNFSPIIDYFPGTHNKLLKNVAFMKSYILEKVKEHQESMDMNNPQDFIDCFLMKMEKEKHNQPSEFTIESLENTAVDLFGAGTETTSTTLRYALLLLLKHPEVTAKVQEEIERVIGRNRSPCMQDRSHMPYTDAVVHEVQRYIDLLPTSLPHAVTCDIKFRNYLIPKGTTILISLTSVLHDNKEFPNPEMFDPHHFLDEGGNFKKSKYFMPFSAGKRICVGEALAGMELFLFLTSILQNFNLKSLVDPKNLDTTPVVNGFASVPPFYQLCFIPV
# HEK293 [18] = experiment: cells; format: functional, cell-based; settings: Homo sapiens
# HEK293 [19] = experiment: inhibition of NOD1-driven NF-kB reporter – cell-based, luminescence, uHTS, primary screen (AID 1578); format: functional; settings: Homo sapiens
# HEK293 [20] = experiment: NOD2 signaling inhibitors in MDP-stimulated cells, cell-based, uHTS, luminescence (AID 2001); format: functional; settings: Homo sapiens
# HEK293 [21] = experiment: cells; format: functional, cell-based; settings: Homo sapiens; remark: listed apart in the source
# Phosphomannomutase 2 = Phosphomannomutase 2 (Homo sapiens, UniProt O15305); experiment: Counter screen SAR assay for PMM2 inhibitors via a fluorescence intensity assay. [Related pubchem assays (depositor defined):AID1545, AID1574]
# Sequence of Phosphomannomutase 2 (O15305 whole entry): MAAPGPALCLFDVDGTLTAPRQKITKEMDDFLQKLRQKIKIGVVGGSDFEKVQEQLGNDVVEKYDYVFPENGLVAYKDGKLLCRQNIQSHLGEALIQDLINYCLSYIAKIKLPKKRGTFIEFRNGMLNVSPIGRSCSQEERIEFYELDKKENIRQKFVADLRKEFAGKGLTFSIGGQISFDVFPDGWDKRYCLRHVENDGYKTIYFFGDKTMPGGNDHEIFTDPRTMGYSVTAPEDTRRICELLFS
# [22] = target: T4, Alkaline phosphatase, tissue-nonspecific isozyme (Homo sapiens, UniProt P05186); experiment: potency against alkaline phosphatase TNAP – biochemical, luminescent, dose response, SAR follow-up (AID 1056)
# T4 sequence (P05186 whole entry): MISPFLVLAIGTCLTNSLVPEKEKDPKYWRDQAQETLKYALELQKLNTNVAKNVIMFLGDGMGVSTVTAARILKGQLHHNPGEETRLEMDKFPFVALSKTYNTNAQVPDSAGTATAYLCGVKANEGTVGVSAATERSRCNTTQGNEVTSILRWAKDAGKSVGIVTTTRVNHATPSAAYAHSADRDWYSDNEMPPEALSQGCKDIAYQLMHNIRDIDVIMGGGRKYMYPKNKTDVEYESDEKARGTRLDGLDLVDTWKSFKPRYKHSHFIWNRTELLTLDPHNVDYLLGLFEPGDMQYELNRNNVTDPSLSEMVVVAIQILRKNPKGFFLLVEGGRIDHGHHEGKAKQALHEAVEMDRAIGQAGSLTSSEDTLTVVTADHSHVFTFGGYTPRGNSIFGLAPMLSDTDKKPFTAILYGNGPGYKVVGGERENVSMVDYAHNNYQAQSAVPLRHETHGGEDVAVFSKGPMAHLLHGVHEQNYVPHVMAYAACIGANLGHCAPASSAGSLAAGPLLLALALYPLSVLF
# [23] = target: Phosphoethanolamine/phosphocholine phosphatase (Homo sapiens, UniProt Q8TCT1); experiment: SAR assay for compounds that inhibit PHOSPHO1. [Related pubchem assays (depositor defined):AID1545, AID1565, AID1574]
# Sequence of Phosphoethanolamine/phosphocholine phosphatase (Q8TCT1 whole entry): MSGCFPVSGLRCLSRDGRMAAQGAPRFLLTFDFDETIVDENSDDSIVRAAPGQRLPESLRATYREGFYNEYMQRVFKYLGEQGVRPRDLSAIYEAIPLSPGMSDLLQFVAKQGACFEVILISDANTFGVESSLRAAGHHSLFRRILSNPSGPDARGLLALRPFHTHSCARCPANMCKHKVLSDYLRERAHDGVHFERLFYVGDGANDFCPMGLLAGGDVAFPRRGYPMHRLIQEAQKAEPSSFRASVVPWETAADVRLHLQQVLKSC
# [24] = target: T5, Mannose-6-phosphate isomerase (Homo sapiens, UniProt P34949); experiment: phosphomannose isomerase inhibition – biochemical, fluorescence intensity, confirmation (AID 1535)
# T5 sequence (P34949 whole entry): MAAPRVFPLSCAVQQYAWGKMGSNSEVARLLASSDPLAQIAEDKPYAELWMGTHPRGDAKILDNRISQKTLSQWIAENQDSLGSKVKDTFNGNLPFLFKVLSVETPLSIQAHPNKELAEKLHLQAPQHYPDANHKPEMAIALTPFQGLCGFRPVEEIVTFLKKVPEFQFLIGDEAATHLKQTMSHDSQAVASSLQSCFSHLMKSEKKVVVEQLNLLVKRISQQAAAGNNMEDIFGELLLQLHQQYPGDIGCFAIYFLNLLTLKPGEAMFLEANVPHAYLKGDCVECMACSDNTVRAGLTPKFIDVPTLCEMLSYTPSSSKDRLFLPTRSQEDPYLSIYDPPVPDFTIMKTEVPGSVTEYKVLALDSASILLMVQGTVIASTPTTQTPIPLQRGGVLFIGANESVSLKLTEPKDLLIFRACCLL
structure (smiles),measurement,setting,value
CC(=O)Nc1ccc(S(=O)(=O)N(C)CCOCc2ccccc2)cc1,IC50,[1],1.48 µM (active)
same,IC50,[2],1.82 µM (active)
Cc1ccccc1Oc1ncnc2oc(-c3ccccc3)cc12,AC50,Cytochrome P450 3A4,inconclusive
same,IC50,[3],24.3 µM (not active)
same,IC50,[4],> 43.8 µM (not active)
CCC(=O)NC(c1cccs1)c1cc(Cl)c2cccnc2c1O (stereo unspecified),EC50,[5],34.7 µM (active)
same,EC50,[6],1.13 µM (active)
same,EC50,[7],0.692 µM (active)
same,EC50,[8],> 150 µM (inactive)
same,EC50,[9],> 180 µM (inactive)
same,AC50,[10],3.61 µM (active)
same,AC50,INS1,1.28 µM (active)
same,EC50,[11],0.48 µM (active)
same,IC50,[12],> 119 µM (inactive)
same,EC50,cells [13],61.3 µM (active)
same,IC50,Exodeoxyribonuclease V,> 119 µM (inactive)
same,CC50,Vero,3.84 µM (active)
same,EC50,cells [14],> 350 µM (not active)
Fc1ccc(-n2cc(-c3ccccc3)c3c(S)ncnc32)cc1,EC50,HEK293 [15],> 59.6 µM (inactive)
same,EC50,[16],12.1 µM (active)
same,EC50,Streptococcus,> 150 µM (not active)
same,EC50,Streptokinase A,> 150 µM (not active)
same,EC50,HEK293 [17],> 59.6 µM (inactive)
CCOC(=O)N1CCN(CC(=O)c2ccc3c(c2)CCN3)CC1,AC50,Cytochrome P450 3A4,inconclusive
same,AC50,Cytochrome P450 2C9,17.8 µM (inconclusive)
CCCCCOc1ccc(/C=C/c2c([N+](=O)[O-])c(=O)n(C)c(=O)n2C)cc1,IC50,HEK293 [18],> 20 µM (inactive)
same,EC50,HEK293 [19],> 20 µM (inactive)
same,IC50,HEK293 [20],8.94 µM (active)
same,IC50,HEK293 [21],> 20 µM (inactive)
CCN(CC)S(=O)(=O)c1cccc(-n2sc3ccccc3c2=O)c1,IC50,Phosphomannomutase 2,> 100 µM (inactive)
same,IC50,[22],> 100 µM (inactive)
same,IC50,[23],0.555 µM (active)
same,IC50,[24],61.9 µM (active)
Cc1ccc(-n2sc3c4c(ccc3c2=O)C(=O)c2ccccc2C4=O)cc1,IC50,Phosphomannomutase 2,> 100 µM (inactive)
same,IC50,[23],2.02 µM (inactive)
same,IC50,[24],> 50 µM (inactive)
